Measurements: paper PMC9779727, “Identification of Novel Artemisinin Hybrids Induce Apoptosis and Ferroptosis in MCF-7 Cells” (International Journal of Molecular Sciences, 2022)

Experiments:
[1] = target: T1, CYP2D6 (Homo sapiens, UniProt P10635); assay: CYPs inhibition assay, CYP2D6; type: in vitro ADME; settings: human liver microsomes
T1 construct: from tissue; host or cells: human liver microsomes
Method: (§1) Finally, we evaluated the interaction between the hybrid A8 and five major metabolic enzymes (CYP1A2, CYP2C9, CYP2C19, CYP2D6 and CYP3A4) in the human body. […] It is also one of the directions for our further transformation and optimization.
(§2) Cytochrome P450 inhibition was evaluated in human liver microsomes (0.253 mg/mL) using five […] (CYP1A2, α-Naphthoflavone; CYP2C9, Sulfaphenazole; CYP2C19, Benzylnirvanol; CYP2D6, Quinidine; and CYP3A4, Ketoconazole.) in the presence of compound A8 (10 μM). After preincubation for 10 min at 37 °C, an NADPH-regenerating system was added. After the mixed system was incubated for 15 min at 37 °C, the reaction was stopped by adding 400 μL of cold stop solution (200 ng/mL tolbutamide and 200 ng/mL labetalol in acetonitrile). Then, the mixture was centrifuged, and the supernatant was analyzed by LC-MS/MS.

[2] = system: MCF-7 cells; assay: GSH level detection; type: cell-based, human
From the text: We also determined the effect of A8 on the expression of GSH and MDA (lipid peroxidation).
Lipid peroxidation assay kit (Beyotime, Shanghai, China) was used to detect malonaldehyde (MDA), together with GSH level assay, present in samples, as per the manufacturer’s instruction with slight modifications.

[3] = system: breast cancer MCF-7 cells; assay: MTT antiproliferation assay, MCF-7; type: cell-based, human; settings: 48 h, means ± SD, n = 3
From the text: (§3) The target hybrids A1–A15 were screened for their antiproliferation activities against five human cancer cell lines (lung cancer A549 cells, breast cancer MCF-7 and MDA-MB-231 cells, colon cancer HCT116 cells and ovarian cancer SK-OV-3 cells) in vitro by the standard MTT method, and 5-fluorouracil (5-FU) and ART were coassayed as controls. […] Therefore, the most promising hybrid, A8, was chosen for further exploration of the preliminary mechanism of MCF-7 cell antiproliferation.
(§4) Cytotoxicity of test compounds against five different tumor cell lines were evaluated using an MTT assay in vitro. Cells were seeded into 96-well plates at a density of 5 × 10^4 cells per well and stabilized at 37 °C with 5% CO2 for 24 h. Compounds A1–A15, ART and 5-FU were added to each well at various concentrations and then the cells were incubated for 48 h. The MTT solution (100 μL 0.5 mg/mL^−1) was added to each well, and the cells were incubated for another 4 h. Then, 150 μL DMSO was added to each well and the absorbance of samples was measured at 492 nm. The IC50 values were calculated according to Logit method after getting the inhibitory rate.

[4] = target: T2, CYP1A2 (Homo sapiens, UniProt P05177); assay: CYPs inhibition assay, CYP1A2; type: in vitro ADME
T2 construct: from tissue; host or cells: human liver microsomes
T2 sequence (P05177 1-516): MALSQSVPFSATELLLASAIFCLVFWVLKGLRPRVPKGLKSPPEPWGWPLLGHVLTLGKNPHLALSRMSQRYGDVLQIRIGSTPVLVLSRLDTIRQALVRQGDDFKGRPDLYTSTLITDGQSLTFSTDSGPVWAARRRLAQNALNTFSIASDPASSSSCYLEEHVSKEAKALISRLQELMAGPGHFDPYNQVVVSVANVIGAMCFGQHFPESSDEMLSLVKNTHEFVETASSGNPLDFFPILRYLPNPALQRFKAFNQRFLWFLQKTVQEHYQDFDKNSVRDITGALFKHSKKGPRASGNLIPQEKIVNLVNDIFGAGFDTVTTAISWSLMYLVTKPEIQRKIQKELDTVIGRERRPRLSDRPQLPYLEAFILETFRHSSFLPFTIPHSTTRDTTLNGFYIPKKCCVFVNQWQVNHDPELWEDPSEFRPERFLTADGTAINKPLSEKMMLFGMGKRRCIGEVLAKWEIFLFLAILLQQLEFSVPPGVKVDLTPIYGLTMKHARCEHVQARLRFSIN
Method: as §1, §2

[5] = target: T3, CYP3A4 (Homo sapiens, UniProt P08684); assay: CYPs inhibition assay, CYP3A4; type: in vitro ADME
T3 construct: from tissue; host or cells: human liver microsomes
Method: as §1, §2

[6] = system: Bcl-2; assay: Western blotting, Bcl-2 expression; type: cell-based, human; settings: MCF-7, 0, 2.5, 5 and 10 μM, 48 h, GAPDH internal control
Method: (§5) Based on the JC-1 staining results, we further analyzed the expression of proteins related to apoptosis using a Western blotting assay with GAPDH as an internal control. […] Then, an excess of cytochrome C can enhance caspase-3 activation to stimulate apoptosis.
(§6) MCF-7 cells were seeded at a density of 4 × 10^5 cells per well and treated with various concentrations of compound A8 (0, 2.5, 5 and 10 μM) for 48 h. After this, cells were collected and washed twice with ice-cold DPBS. The pellets were resuspended in a total protein extraction buffer (20 mM HEPES, 350 mM NaCl, 20% glycerol, 1% NP-40, 1 mM MgCl2, 0.5 mM EDTA, 0.1 mM EGTA, 0.1 mM DTT, 0.1 mM PMSF) containing a protease inhibitor cocktail and incubated on ice for 30 min with intermittent mixing. The protein concentration was measured using the Bradford reagent (Bio-Rad Laboratories Inc., Hercules, CA, USA). An equal amount (20 μg) of protein was loaded on 10% polyacrylamide gels and transferred to a nitrocellulose membrane. After blocking with 5% skimmed milk, the membrane was incubated at 4 °C overnight with specific primary antibodies. The membrane was washed and incubated at room temperature for 1 h with secondary antibodies conjugated with horseradish peroxidase (HRP). Finally, the immunoblot was developed for visualization using a chemiluminescence kit. […]

[7] = system: lung cancer A549 cells; assay: MTT antiproliferation assay, A549; type: cell-based, human; settings: 48 h, means ± SD, n = 3
From the text: as §3, §4

[8] = system: MCF-7 cells; assay: JC-1 mitochondrial membrane potential assay; type: cell-based, human; settings: 48 h, control 7.85%
Method: JC-1 staining was also performed to explore the change in mitochondrial membrane potential (MMP), which could induce apoptosis.
MCF-7 cells were plated at 1 × 10^6 cells per well in 24-well plates and incubated with compound A8 at various concentrations (0, 2.5, 5 and 10 μM) for 48 h. Subsequently, the cells were incubated with JC-1 dye and finally analyzed by flow cytometry (Beckman Coulter cytoFLEX, USA).

[9] = target: T4, CYP2C9 (Homo sapiens, UniProt P11712); assay: CYPs inhibition assay, CYP2C9; type: in vitro ADME; settings: human liver microsomes
T4 construct: from tissue; host or cells: human liver microsomes
Method: as §1, §2

[10] = system: Bax; assay: Western blotting, Bax expression; type: cell-based, human; settings: MCF-7, 0, 2.5, 5 and 10 μM, 48 h, GAPDH internal control
Method: as §5, §6

T3 sequence (P08684 whole entry): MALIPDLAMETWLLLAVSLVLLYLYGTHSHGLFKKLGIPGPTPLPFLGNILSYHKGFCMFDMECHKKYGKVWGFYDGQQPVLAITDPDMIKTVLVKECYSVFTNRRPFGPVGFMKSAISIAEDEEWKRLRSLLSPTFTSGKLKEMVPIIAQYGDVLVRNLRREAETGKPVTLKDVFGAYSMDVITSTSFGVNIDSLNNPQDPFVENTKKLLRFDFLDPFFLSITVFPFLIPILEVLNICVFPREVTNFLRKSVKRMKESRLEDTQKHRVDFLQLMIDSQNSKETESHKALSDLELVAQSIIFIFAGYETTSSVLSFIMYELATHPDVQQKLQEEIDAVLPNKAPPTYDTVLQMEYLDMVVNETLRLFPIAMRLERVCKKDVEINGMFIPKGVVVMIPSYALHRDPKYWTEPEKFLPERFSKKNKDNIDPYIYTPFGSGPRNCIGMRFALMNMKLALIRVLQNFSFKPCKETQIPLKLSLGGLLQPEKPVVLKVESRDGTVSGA
T4 sequence (P11712 whole entry): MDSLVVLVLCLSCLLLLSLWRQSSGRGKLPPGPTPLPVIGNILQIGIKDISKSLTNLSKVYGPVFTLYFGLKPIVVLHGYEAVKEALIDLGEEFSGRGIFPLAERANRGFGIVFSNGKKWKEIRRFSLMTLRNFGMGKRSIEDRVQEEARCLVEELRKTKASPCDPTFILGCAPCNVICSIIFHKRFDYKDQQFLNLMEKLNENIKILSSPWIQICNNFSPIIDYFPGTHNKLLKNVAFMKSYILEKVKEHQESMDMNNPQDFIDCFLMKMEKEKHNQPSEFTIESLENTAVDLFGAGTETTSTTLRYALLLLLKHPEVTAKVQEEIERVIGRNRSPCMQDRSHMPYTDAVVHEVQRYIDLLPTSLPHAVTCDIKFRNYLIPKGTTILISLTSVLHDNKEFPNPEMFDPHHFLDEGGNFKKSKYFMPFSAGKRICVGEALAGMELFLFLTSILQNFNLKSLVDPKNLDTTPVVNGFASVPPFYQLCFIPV
T1 sequence (P10635 whole entry): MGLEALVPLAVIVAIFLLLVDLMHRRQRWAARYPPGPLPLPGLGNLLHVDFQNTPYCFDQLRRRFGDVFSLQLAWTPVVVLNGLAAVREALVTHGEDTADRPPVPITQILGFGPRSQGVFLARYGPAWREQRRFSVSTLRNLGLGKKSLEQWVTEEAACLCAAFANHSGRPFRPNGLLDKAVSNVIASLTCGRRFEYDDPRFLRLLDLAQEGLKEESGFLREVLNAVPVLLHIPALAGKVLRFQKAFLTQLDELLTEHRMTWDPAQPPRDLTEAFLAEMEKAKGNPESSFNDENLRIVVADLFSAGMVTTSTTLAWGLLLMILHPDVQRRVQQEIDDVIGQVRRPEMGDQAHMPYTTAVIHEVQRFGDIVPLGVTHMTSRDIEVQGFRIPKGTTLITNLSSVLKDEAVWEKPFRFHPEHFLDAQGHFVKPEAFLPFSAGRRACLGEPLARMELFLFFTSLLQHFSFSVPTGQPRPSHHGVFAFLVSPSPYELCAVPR

## CC1CCC2C(C)C(OC(=O)CCC(=O)NCc3nnc(Nc4ccc(F)cc4F)o3)OC3OC4(C)CCC1C32OO4 (centres unmarked) [A8]
[1]
  Inhibition at 10 μM (%) CYP2D6: 0.1%
[2]
  GSH level (in words): decreased significantly
[3]
  IC50: 4.07 ± 0.05 µM
[4]; 10 μM
  inhibitory effect on CYP1A2 (in words): moderate inhibitory effect
[4]; human liver microsomes
  Inhibition at 10 μM (%) CYP1A2: 57.1%
[5]; 10 μM
  inhibitory effect on CYP3A4 (in words): moderate inhibitory effect
[5]; human liver microsomes
  Inhibition at 10 μM (%) CYP3A4: 55.8%
[6]
  expression of Bcl-2 (in words): significantly downregulated
[7]
  IC50: 7.7 ± 0.36 µM
[8]; 2.5 μM
  proportion of MCF-7 cells with depolarized mitochondria (Q1-LR): 19.45%
[8]; 5 μM
  proportion of MCF-7 cells with depolarized mitochondria (Q1-LR): 36.90%
[8]; 10 μM
  proportion of MCF-7 cells with depolarized mitochondria (Q1-LR): 48.70%
[9]
  Inhibition at 10 μM (%) CYP2C9: 6.4%
[10]
  expression of Bax (in words): upregulated
